According to ChEMBL document CHEMBL3046616, “Design, synthesis, and biological activities of milbemycin analogues” (2011):
≈ marks a conversion by molar mass, not a printed value.

Legend:
Assay type in all cases: functional
Aphis fabae [1] = test: Insecticidal activity against Aphis fabae (black bean aphid) infested soybean tender shoots at 0.625 mg/L measured 48 hr post compound dose by modified FAO dip method
Mythimna separata [2] = test: Insecticidal activity against Mythimna separata (Oriental armyworm) fourth-instar larvae reared compound pre-treated corn leaves assessed as insect mortality at 2.5 mg/L measured 2 days post compound dose
Aphis fabae [3] = test: Insecticidal activity against Aphis fabae (black bean aphid) infested soybean tender shoots at 10 mg/L measured 48 hr post compound dose by modified FAO dip method
Aphis fabae [4] = test: Insecticidal activity against Aphis fabae (black bean aphid) infested soybean tender shoots at 2.5 mg/L measured 48 hr post compound dose by modified FAO dip method
Mythimna separata [5] = test: Insecticidal activity against Mythimna separata (Oriental armyworm) fourth-instar larvae reared compound pre-treated corn leaves assessed as insect mortality at 10 mg/L measured 2 days post compound dose
Mythimna separata [6] = test: Insecticidal activity against Mythimna separata (Oriental armyworm) fourth-instar larvae reared compound pre-treated corn leaves assessed as insect mortality at 0.625 mg/L measured 2 days post compound dose
Tetranychus cinnabarinus = test: Insecticidal activity against Tetranychus cinnabarinus (carmine spider mite) […] assessed as larvicidal activity at 0.006 mg/L after 48 hr
Aphis fabae [7] = test: Insecticidal activity against Aphis fabae (black bean aphid) infested soybean tender shoots measured 48 hr post compound dose by modified FAO dip method; design: concentration or dose not given beside the values
Mythimna separata [8] = test: Insecticidal activity against fourth-instar larvae of Mythimna separata (Oriental armyworm) reared on compound pre-treated corn leaves assessed as insect mortality at 0.0625 mg/L measured 2 days post compound dose
Mythimna separata [9] = test: Insecticidal activity against Mythimna separata (Oriental armyworm) fourth-instar larvae reared compound pre-treated corn leaves assessed as insect mortality measured 2 days post compound dose
Mythimna separata [10] = test: Insecticidal activity against Mythimna separata (Oriental armyworm) fourth-instar larvae reared compound pre-treated corn leaves assessed as insect mortality at 0.5 mg/L measured 2 days post compound dose
Mythimna separata [11] = test: Insecticidal activity against fourth-instar larvae of Mythimna separata (Oriental armyworm) reared on compound pre-treated corn leaves assessed as insect mortality at 0.03125 mg/L measured 2 days post compound dose
Aphis fabae [12] = test: Insecticidal activity against Aphis fabae (black bean aphid) infested soybean tender shoots at 0.25 mg/L measured 48 hr post compound dose by modified FAO dip method
Aphis fabae [13] = test: Insecticidal activity against Aphis fabae (black bean aphid) infested soybean tender shoots at 0.125 mg/L measured 48 hr post compound dose by modified FAO dip method
Mythimna separata [14] = test: Insecticidal activity against Mythimna separata (Oriental armyworm) fourth-instar larvae reared compound pre-treated corn leaves assessed as insect mortality at 1 mg/L measured 2 days post compound dose
Aphis fabae [15] = test: Insecticidal activity against Aphis fabae (black bean aphid) infested soybean tender shoots at 1 mg/L measured 48 hr post compound dose by modified FAO dip method
Aphis fabae [16] = test: Insecticidal activity against Aphis fabae (black bean aphid infested soybean tender shoots measured 48 hr post compound dose by modified FAO dip method
Aphis fabae [17] = test: Insecticidal activity against Aphis fabae (black bean aphid) infested soybean tender shoots at 0.5 mg/L measured 48 hr post compound dose by modified FAO dip method
Aphis fabae [18] = test: Insecticidal activity against bean Aphis fabae (black bean aphid) infested soybean tender shoots at 0.03125 mg/L measured 48 hr post compound dose by modified FAO dip method
Mythimna separata [19] = test: Insecticidal activity against Mythimna separata (Oriental armyworm) fourth-instar larvae reared compound pre-treated corn leaves assessed as insect mortality at 0.25 mg/L measured 2 days post compound dose
Mythimna separata [20] = test: Insecticidal activity against fourth-instar larvae of Mythimna separata (Oriental armyworm) reared on compound pre-treated corn leaves assessed as insect mortality at 0.125 mg/L measured 2 days post compound dose
Aphis fabae [21] = test: Insecticidal activity against Aphis fabae (black bean aphid) infested soybean tender shoots at 0.0625 mg/L measured 48 hr post compound dose by modified FAO dip method
Mythimna separata [22] = test: Insecticidal activity against Mythimna separata (Oriental armyworm) fourth-instar larvae reared compound pre-treated corn leaves assessed as insect mortality at 200 mg/L measured 2 days post compound dose

For `CCC(C)[C@H]1O[C@]2(CC[C@@H]1C)C[C@@H]1C[C@@H](C/C=C(\C)[C@@H](OC(=O)Nc3cccc(C)c3)[C@@H](C)/C=C/C=C3\CO[C@@H]4[C@H](O)C(C)=C[C@@H](C(=O)O1)[C@]34O)O2` (stereo partly drawn), the mortality at 0.625 µg/mL (Aphis fabae [1]) was 86.1%, the mortality at 2.5 µg/mL (Mythimna separata [2]) was 76.7% and the mortality at 10 µg/mL (Aphis fabae [3]) was 100%. It also gave a mortality at 2.5 µg/mL (Aphis fabae [4]) of 98.9%, a mortality at 10 µg/mL (Mythimna separata [5]) of 98.6% and a mortality at 0.625 µg/mL (Mythimna separata [6]) of 43.2%. It also gave a mortality at 0.006 µg/mL (Tetranychus cinnabarinus) of 56.6%.

Work on `CCC(C)[C@H]1O[C@]2(CC[C@@H]1C)C[C@@H]1C[C@@H](C/C=C(\C)[C@@H](O[C@H]3C[C@H](OC)[C@@H](OC(=O)c4ccccc4)[C@H](C)O3)[C@@H](C)/C=C/C=C3\CO[C@@H]4[C@H](O)C(C)=C[C@@H](C(=O)O1)[C@]34O)O2` (stereo partly drawn) yielded a mortality at 0.625 µg/mL (Aphis fabae [1]) of 86.3%, a mortality at 2.5 µg/mL (Mythimna separata [2]) of 100% and a mortality at 10 µg/mL (Aphis fabae [3]) of 100%. For the same compound, the mortality at 2.5 µg/mL (Aphis fabae [4]) was 100%, the mortality at 10 µg/mL (Mythimna separata [5]) was 100% and the mortality at 0.625 µg/mL (Mythimna separata [6]) was 38.8%. It also gave a mortality at 0.006 µg/mL (Tetranychus cinnabarinus) of 24.8%.

Compound `CCC(C)[C@H]1O[C@]2(CC[C@@H]1C)C[C@@H]1C[C@@H](C/C=C(\C)[C@@H](OC(=O)c3ccc(Cl)cc3)[C@@H](C)/C=C/C=C3\CO[C@@H]4[C@H](O)C(C)=C[C@@H](C(=O)O1)[C@]34O)O2` (stereo partly drawn) has a mortality (Aphis fabae [7]) of 87.9%, a mortality at 2.5 µg/mL (Mythimna separata [2]) of 24.9% and a mortality at 10 µg/mL (Mythimna separata [5]) of 100%. It also gave a mortality at 0.625 µg/mL (Mythimna separata [6]) of 0% and a mortality at 0.006 µg/mL (Tetranychus cinnabarinus) of 26.9%.

`CCC(C)[C@H]1O[C@]2(CC[C@@H]1C)C[C@@H]1C[C@@H](C/C=C(\C)[C@@H](O[C@H]3C[C@H](OC)[C@@H](OC(=O)c4ccc(Cl)cc4)[C@H](C)O3)[C@@H](C)/C=C/C=C3\CO[C@@H]4[C@H](O)C(C)=C[C@@H](C(=O)O1)[C@]34O)O2` (stereo partly drawn) showed a mortality (Aphis fabae [7]) of 100%, a mortality at 2.5 µg/mL (Mythimna separata [2]) of 16.7% and a mortality at 10 µg/mL (Mythimna separata [5]) of 93.9%. For the same compound, the mortality at 0.625 µg/mL (Mythimna separata [6]) was 0% and the mortality at 0.006 µg/mL (Tetranychus cinnabarinus) was 32.3%.

`CCC(C)[C@H]1O[C@]2(CC[C@@H]1C)C[C@@H]1C[C@@H](C/C=C(\C)[C@@H](O[C@H]3C[C@H](OC)[C@@H](OC(=O)Cc4ccccc4)[C@H](C)O3)[C@@H](C)/C=C/C=C3\CO[C@@H]4[C@H](O)C(C)=C[C@@H](C(=O)O1)[C@]34O)O2` (stereo partly drawn) showed a mortality at 0.0625 µg/mL (Mythimna separata [8]) of 10.1%, an LC50 (Mythimna separata [9]) of 0.204 µg/mL (≈ 0.24 µM) and a mortality at 0.5 µg/mL (Mythimna separata [10]) of 90.2%. The mortality at 0.03125 µg/mL (Mythimna separata [11]) was 0%, the mortality at 0.25 µg/mL (Aphis fabae [12]) was 65.8% and the mortality at 0.125 µg/mL (Aphis fabae [13]) was 31.2%. The mortality at 1 µg/mL (Mythimna separata [14]) was 100%, the mortality at 1 µg/mL (Aphis fabae [15]) was 100% and the LC90 (Aphis fabae [16]) was 0.742 µg/mL (≈ 0.874 µM). The LC50 (Aphis fabae [16]; Aphis fabae, 48 h) was 0.07 µg/mL (≈ 0.0824 µM), the mortality at 0.5 µg/mL (Aphis fabae [17]) was 86.7% and the mortality at 0.03125 µg/mL (Aphis fabae [18]) was 0%. The mortality at 0.25 µg/mL (Mythimna separata [19]) was 60.3%, the mortality at 0.125 µg/mL (Mythimna separata [20]) was 20.5% and the mortality at 0.0625 µg/mL (Aphis fabae [21]) was 3.3%. It also gave a mortality at 0.006 µg/mL (Tetranychus cinnabarinus) of 14.3%.

`CCC(C)[C@H]1O[C@]2(CC[C@@H]1C)C[C@@H]1C[C@@H](C/C=C(\C)[C@@H](OC(=O)c3cc(F)c(Cl)nc3Cl)[C@@H](C)/C=C/C=C3\CO[C@@H]4[C@H](O)C(C)=C[C@@H](C(=O)O1)[C@]34O)O2` (stereo partly drawn) gave a mortality at 0.625 µg/mL (Aphis fabae [1]) of 8.3%, a mortality at 10 µg/mL (Aphis fabae [3]) of 66.9% and a mortality at 200 µg/mL (Mythimna separata [22]) of 50.9%. It also gave a mortality at 2.5 µg/mL (Aphis fabae [4]) of 38.2% and a mortality at 0.006 µg/mL (Tetranychus cinnabarinus) of 7.7%.

`CCC(C)[C@H]1O[C@]2(CC[C@@H]1C)C[C@@H]1C[C@@H](C/C=C(\C)[C@@H](O[C@H]3C[C@H](OC)[C@@H](OC(=O)C(C)(C)CC)[C@H](C)O3)[C@@H](C)/C=C/C=C3\CO[C@@H]4[C@H](O)C(C)=C[C@@H](C(=O)O1)[C@]34O)O2` (stereo partly drawn) was tested, and the mortality at 0.625 µg/mL (Aphis fabae [1]) was 89.1%, the mortality at 2.5 µg/mL (Mythimna separata [2]) was 83.6% and the mortality at 2.5 µg/mL (Aphis fabae [4]) was 100%. It also gave a mortality at 0.625 µg/mL (Mythimna separata [6]) of 0% and a mortality at 0.006 µg/mL (Tetranychus cinnabarinus) of 39.6%.

With `CCC(C)[C@H]1O[C@]2(CC[C@@H]1C)C[C@@H]1C[C@@H](C/C=C(\C)[C@@H](O[C@H]3C[C@H](OC)[C@@H](OC(=O)c4cc(F)c(Cl)nc4Cl)[C@H](C)O3)[C@@H](C)/C=C/C=C3\CO[C@@H]4[C@H](O)C(C)=C[C@@H](C(=O)O1)[C@]34O)O2` (stereo partly drawn) the mortality (Aphis fabae [7]) was 88.2%, the mortality at 200 µg/mL (Mythimna separata [22]) was 0% and the mortality at 0.006 µg/mL (Tetranychus cinnabarinus) was 16.5%.
